Results from patent publication US6372297B1, “Wood preservative oxathiazines” (Uniroyal Chemical Company, Inc., priority 1993, dated 2002).

Columns and labels:
[1] = test system: mixed spore suspension: Aureobasidium pullulans, Aspergillus amstelodami, Ceratocystis pilifera, Cladosporium sp., Penicillium sp., Sclerophomas entoxylina …; test: Control of molds and sapstain fungi in mini-board test; design: key to Surface score of treated mini-boards, 3 week incubation, 1500 ppm / Surface score of treated mini-boards, 3 week incubation, 2500 ppm: 0: Free of fungal growth; 1: Traces of fungal growth; 2: Little fungal growth; 3: Moderate fungal growth; 4: Vigorous to maximum growth (all surfaces covered with fungal growth)
From the text: Representative compounds of this invention to be tested, were suspended in an aqueous solution containing 7.5% GENAPOL X 080™ (Hoechst-Celanese Corporation), and 20% propylene glycol monomethyl ether, to prepare the test solutions. […]
Deep frozen boards (300×50×10 mm) of freshly felled sapwood of Pinus sylvestrus (mini-boards) were thawed at room temperature. One half of each mini-board was immersed in a test solution for 20 seconds. The mini-boards were then sprayed with mixed spore suspension containing the following fungi:
Sclerophomas entoxylina, and
and stored in incubation boxes at 25° C. and at 100% relative humidity, for three weeks. For each compound tested, each concentration of test solution was applied to five different mini-boards.
The efficacy of the test compounds was determined by comparing the fungal growth on both the treated and untreated parts of the mini-boards.
The degree of infection was scored according to the following scale:
1=Traces of fungal growth
4=Vigorous to maximum growth (all surfaces covered with fungal growth)

[2] = test system: mixed spore suspension of blue-stain fungus and molds; test: Activity against blue-stain fungi and molds in a mold cabinet test (BS3900: Part G6); design: key: 0: No growth; Trace of growth of up to 1% coverage of the test inoculated area; 2: Growth covering between 1 and 10% of the inoculated test area; Growth covering between 10 and 30% of the inoculated test area; 4: Growth covering between 30 and 70% of the inoculated test area; 5: Growth covering more than 70t of the inoculated test area
Method: Using the methods described in BS3900: Part G6: 1989, British Standard Methods of test for paints, “Assessment of resistance to fungal growth”, representative compounds of this invention were tested for activity against blue-stain fungus and molds in a mold cabinet test. In brief, sticks of Scots pine (Pinus sylvestris) measuring 75×100×10 mm, were painted, allowed to dry, and sterilized by […] (1.2 mRad). […] The sticks were then with each solution. The inoculation consisted of dipping the sticks in a mixed spore suspension, then placing them in a mold chamber and incubating them for 12 weeks. The surfaces were evaluated according the following score system: 0: No growth 1: […] 2: […] 3: […] 4. […] 5. Growth covering more than 70% of the inoculated test area.

[3] = test system: blue-stain fungi and molds; test: Activity against blue-stain fungi and molds on a stick test on vermiculite (paint film); design: key to Surface score of wooden sticks treated with paint formulation, C. cladosporioides / Surface score of wooden sticks treated with paint formulation, P. purpurogenum / Surface score of wooden sticks treated with paint formulation, P. violacea / Surface score of wooden sticks treated with paint formulation, R rubra (y) / Surface score of wooden sticks treated with paint formulation, S. chartarum / Surface score of wooden sticks treated with paint formulation, A. versicolor / Surface score of wooden sticks treated with paint formulation, A. pullulans: 0: No growth; Trace of growth of up to 1% coverage of the test inoculated area; 2: Growth covering between 1 and 10% of the inoculated test area; Growth covering between 10 and 30% of the inoculated test area; 4: Growth covering between 30 and 70% of the inoculated test area; 5: Growth covering more than 70t of the inoculated test area; conditions: 12 weeks on vermiculite; for Surface score of wooden sticks treated with paint formulation, R rubra (y): R rubra (yeast)
Method: Beech sticks (73×18×2 mm) Fagus sylvatica were painted, allowed to dry, and sterilized by γ-radiation (1.2 mRad). […] The coated sticks prepared above were then dipped in a spore suspension of pure culture of each fungus. Seven sticks each were placed in autoclaved Petri dishes (200 mm in diameter, 30 mm in height) containing 300 ml of vermiculite and 120 ml of water, and incubated for 12 weeks. The surfaces of the sticks were then examined for the growth of fungus and were evaluated according to the following scoring system: 0: No growth 1: […] 2: […] 3: […] 4. […] 5. Growth covering more than 70t of the inoculated test area.

| SMILES | Surface score of treated mini-boards, 3 week incubation, 1500 ppm [1] | Surface score of treated mini-boards, 6 week incubation, 1500 ppm [1] | Surface score of treated mini-boards, 3 week incubation, 2500 ppm [1] | Surface score of treated mini-boards, 6 week incubation, 2500 ppm [1] | Surface score in a paint formulation in a mold cabinet test, 6 weeks ([2]; 0.15% in water-based paint) | Surface score in a paint formulation in a mold cabinet test, 12 weeks ([2]; 0.15% in water-based paint) | Surface score in a paint formulation in a mold cabinet test, 6 weeks ([2]; 0.3% in water-based paint) | Surface score in a paint formulation in a mold cabinet test, 12 weeks ([2]; 0.3% in water-based paint) | Surface score of wooden sticks treated with paint formulation, A. pullulans ([3]; 0.15% a.i. in paint) | Surface score of wooden sticks treated with paint formulation, A. pullulans ([3]; 0.3% a.i. in paint) | Surface score of wooden sticks treated with paint formulation, A. versicolor ([3]; 0.15% a.i. in paint) | Surface score of wooden sticks treated with paint formulation, A. versicolor ([3]; 0.3% a.i. in paint) | Surface score of wooden sticks treated with paint formulation, C. cladosporioides ([3]; 0.15% a.i. in paint) | Surface score of wooden sticks treated with paint formulation, C. cladosporioides ([3]; 0.3% a.i. in paint) | Surface score of wooden sticks treated with paint formulation, P. purpurogenum ([3]; 0.15% a.i. in paint) | Surface score of wooden sticks treated with paint formulation, P. purpurogenum ([3]; 0.3% a.i. in paint) | Surface score of wooden sticks treated with paint formulation, P. violacea ([3]; 0.15% a.i. in paint) | Surface score of wooden sticks treated with paint formulation, P. violacea ([3]; 0.3% a.i. in paint) | Surface score of wooden sticks treated with paint formulation, R rubra (y) ([3]; 0.15% a.i. in paint) | Surface score of wooden sticks treated with paint formulation, R rubra (y) ([3]; 0.3% a.i. in paint) | other results |
| --- | --- | --- | --- | --- | --- | --- | --- | --- | --- | --- | --- | --- | --- | --- | --- | --- | --- | --- | --- | --- | --- |
| [O-][S+]1CCON=C1c1ccc(Br)s1 (stereo not drawn) [Compound 36] | 0.2 | 2.6 | 0 | 1.4 | 2.5 | 4.5 | 2.5 | 4.0 | 0 | 0 | 0 | 0 | 0 | 0 | 1 (Trace of growth of up to 1% coverage of the test inoculated area) | 1 (Trace of growth of up to 1% coverage of the test inoculated area) | 3 (Growth covering between 10 and 30% of the inoculated test area) | 1 (Trace of growth of up to 1% coverage of the test inoculated area) | 0 | 0 | Surface score of wooden sticks treated with paint formulation, S. chartarum ([3]; 0.15% a.i. in paint): 0; Surface score of wooden sticks treated with paint formulation, S. chartarum ([3]; 0.3% a.i. in paint): 0; Surface score of wooden sticks treated with paint formulation, U. atrum ([3]; 0.15% a.i. in paint): 3 (Growth covering between 10 and 30% of the inoculated test area); Surface score of wooden sticks treated with paint formulation, U. atrum ([3]; 0.3% a.i. in paint): 1 (Trace of growth of up to 1% coverage of the test inoculated area) |
| Cc1ccsc1C1=NOCCS1(=O)=O [Compound 37] | 0 | 0.8 | 0 | 0.4 | 4.0 | 5.0 | 0 | 0 | 3 (Growth covering between 10 and 30% of the inoculated test area) | 2 (Growth covering between 1 and 10% of the inoculated test area) | 2 (Growth covering between 1 and 10% of the inoculated test area) | 1 (Trace of growth of up to 1% coverage of the test inoculated area) | 3 (Growth covering between 10 and 30% of the inoculated test area) | 0 | 3 (Growth covering between 10 and 30% of the inoculated test area) | 1 (Trace of growth of up to 1% coverage of the test inoculated area) | 5 (Growth covering more than 70t of the inoculated test area) | 4 (Growth covering between 30 and 70% of the inoculated test area) | 4 (Growth covering between 30 and 70% of the inoculated test area) | 3 (Growth covering between 10 and 30% of the inoculated test area) | Surface score of wooden sticks treated with paint formulation, S. chartarum ([3]; 0.15% a.i. in paint): 1 (Trace of growth of up to 1% coverage of the test inoculated area); Surface score of wooden sticks treated with paint formulation, S. chartarum ([3]; 0.3% a.i. in paint): 0; Surface score of wooden sticks treated with paint formulation, U. atrum ([3]; 0.15% a.i. in paint): 4 (Growth covering between 30 and 70% of the inoculated test area); Surface score of wooden sticks treated with paint formulation, U. atrum ([3]; 0.3% a.i. in paint): 3 (Growth covering between 10 and 30% of the inoculated test area) |
